“And” between values parts separate entries of the source, which are not always exact repeats. Equal values may be shown once.
Assay: Plasma and organ concentrations of CBD and CBD-Mono-VHS after IP administration (Example 22)
Format: in vivo
Details: mice, 70 Minutes; for CBD-Mono-Val-Mono-HS Plasma Concentration, AVG. / Total CBD-Mono-Val-Mono-HS, Brain, AVG. / Total CBD-Mono-Val-Mono-HS, Kidney, AVG. / Total CBD-Mono-Val-Mono-HS, Liver, AVG. / Total CBD-Mono-Val-Mono-HS, Spleen, AVG. / Total CBD-Mono-Val-Mono-HS, Total, AVG. / CBD-Mono-Val-Mono-HS Plasma Concentration / Total CBD-Mono-Val-Mono-HS, Brain / Total CBD-Mono-Val-Mono-HS, Kidney / Total CBD-Mono-Val-Mono-HS, Liver / Total CBD-Mono-Val-Mono-HS, Spleen / Total CBD-Mono-Val-Mono-HS, Total: IP; for CBD-Mono-Val-Mono-HS Plasma Concentration / Total CBD-Mono-Val-Mono-HS, Brain / Total CBD-Mono-Val-Mono-HS, Kidney / Total CBD-Mono-Val-Mono-HS, Liver / Total CBD-Mono-Val-Mono-HS, Spleen / Total CBD-Mono-Val-Mono-HS, Total: listed as CBD-Mono-Val-Mono-HS
Protocol: CBD-Mono-VHS was administered intraperitoneally to mice at 2 doses (30 μg and 60 μg equivalent of CBD/mouse). Seventy minutes after dosing the animals (3 mice in each dose group), all animals were sacrificed. Blood, as well as organs (liver, spleen, kidney, and brain), were harvested for LC-MS/MS analysis of their content of both CBD and CBD-Mono-VHS.
Also shown is the concentration of CBD-Mono-VHS in the plasma 70 minutes after dosing.

[1] = IP CBD-Mono-VHS, High Dose (60 μg CBD/mouse), individual animals
[2] = IP CBD-Mono-VHS, Low Dose (30 μg CBD/mouse), AVG.
[3] = IP CBD-Mono-VHS, Low Dose (30 μg CBD/mouse), individual animals
[4] = High Dose (60 μg CBD/mouse), AVG.
[5] = High Dose (60 μg CBD/mouse), individual animals
[6] = Low Dose (30 μg CBD/mouse), AVG.
[7] = Low Dose (30 μg CBD/mouse), individual animals

Compound: C=C(C)C1CCC(C)=CC1c1c(O)cc(CCCCC)cc1OC(=O)[C@@H](NC(=O)CCC(=O)O)C(C)C (stereo partly shown) [CBD-Mono-VHS, CBD-Mono-Valinate-Mono-Hemisuccinate]
- Total CBD, Kidney [1]: 18.50 ng and 14.96 ng and 0.00 ng
- Total CBD, Liver [1]: 319.91 ng and 195.66 ng and 369.75 ng
- Total CBD, Spleen [1]: 93.63 ng and 99.63 ng and 0.00 ng
- Total CBD, Total (IP CBD-Mono-VHS, High Dose (60 μg CBD/mouse), individual animals, sum of the columns): 432.04 ng and 310.25 ng and 372.61 ng
- CBD Plasma Concentration, AVG. [2]: 0.00 ng/mL
- Total CBD, Brain, AVG. [2]: 0.00 ng
- Total CBD, Kidney, AVG. [2]: 2.343 ng
- Total CBD, Liver, AVG. [2]: 47.62 ng
- Total CBD, Spleen, AVG. [2]: 9.46 ng
- Total CBD, Total, AVG. (IP CBD-Mono-VHS, Low Dose (30 μg CBD/mouse), AVG., sum of the columns): 59.42 ng
- CBD Plasma Concentration [3]: 0.00 ng/mL
- Total CBD, Brain [3]: 0.00 ng
- Total CBD, Kidney [3]: 7.03 ng and 0.00 ng (2×)
- Total CBD, Liver [3]: 41.82 ng and 19.61 ng and 81.42 ng
- Total CBD, Spleen [3]: 10.04 ng and 18.35 ng and 0.00 ng
- Total CBD, Total (IP CBD-Mono-VHS, Low Dose (30 μg CBD/mouse), individual animals, sum of the columns): 58.89 ng and 37.96 ng and 81.42 ng
- CBD-Mono-Val-Mono-HS Plasma Concentration, AVG. [4]: 210.45 ng/mL
- Total CBD-Mono-Val-Mono-HS, Brain, AVG. [4]: 63.51 ng
- Total CBD-Mono-Val-Mono-HS, Kidney, AVG. [4]: 1193.95 ng
- Total CBD-Mono-Val-Mono-HS, Liver, AVG. [4]: 7558.89 ng
- Total CBD-Mono-Val-Mono-HS, Spleen, AVG. [4]: 771.76 ng
- Total CBD-Mono-Val-Mono-HS, Total, AVG. (High Dose (60 μg CBD/mouse), AVG., sum of the columns): 9798.56 ng
- CBD-Mono-Val-Mono-HS Plasma Concentration [5]: 137.82 ng/mL and 100.53 ng/mL and 393.00 ng/mL
- Total CBD-Mono-Val-Mono-HS, Brain [5]: 46.59 ng and 42.45 ng and 101.50 ng
- Total CBD-Mono-Val-Mono-HS, Kidney [5]: 780.57 ng and 248.34 ng and 2552.93 ng
- Total CBD-Mono-Val-Mono-HS, Liver [5]: 8380.90 ng and 2882.40 ng and 11413.38 ng
- Total CBD-Mono-Val-Mono-HS, Spleen [5]: 711.31 ng and 477.40 ng and 1126.58 ng
- Total CBD-Mono-Val-Mono-HS, Total (High Dose (60 μg CBD/mouse), individual animals, sum of the columns): 10057.18 ng and 3751.113 ng and 15587.4 ng
- CBD-Mono-Val-Mono-HS Plasma Concentration, AVG. [6]: 29.10 ng/mL
- Total CBD-Mono-Val-Mono-HS, Brain, AVG. [6]: 9.18 ng
- Total CBD-Mono-Val-Mono-HS, Kidney, AVG. [6]: 101.58 ng
- Total CBD-Mono-Val-Mono-HS, Liver, AVG. [6]: 1170.01 ng
- Total CBD-Mono-Val-Mono-HS, Spleen, AVG. [6]: 179.54 ng
- Total CBD-Mono-Val-Mono-HS, Total, AVG. (Low Dose (30 μg CBD/mouse), AVG., sum of the columns): 1489.42 ng
- CBD-Mono-Val-Mono-HS Plasma Concentration [7]: 32.08 ng/mL and 32.24 ng/mL and 22.97 ng/mL
- Total CBD-Mono-Val-Mono-HS, Brain [7]: 13.48 ng and 8.26 ng and 5.81 ng
- Total CBD-Mono-Val-Mono-HS, Kidney [7]: 88.05 ng and 84.14 ng and 132.55 ng
- Total CBD-Mono-Val-Mono-HS, Liver [7]: 1431.98 ng and 534.11 ng and 1543.96 ng
- Total CBD-Mono-Val-Mono-HS, Spleen [7]: 105.24 ng and 283.02 ng and 150.36 ng
- Total CBD-Mono-Val-Mono-HS, Total (Low Dose (30 μg CBD/mouse), individual animals, sum of the columns): 1670.831 ng and 941.765 ng and 1855.656 ng

— US11337950B2, “Biologically active cannabidiol analogs” (University of Mississippi, priority 2016, dated 2022)
